In US20160264593A1 (priority 2013, published 2016):

Test: in vivo
Details: rat, in vivo; for Tmax: Tmax of 100; for MRT: MRT of 100
Method: 100 was administrated via iv route at 0.5, 1.0 and 1.5 mg/kg into SD rats. The blood, liver and brain tissue samples were collected at predetermined times from rats.
Twelve (12) female SD rats per group were dosed by iv with 100. The rats were fasted overnight prior to dosing, with free access to water. Foods were withheld for 2 hours post-dose. Blood, liver and brain tissue samples in two animals each group were collected at each time point, within 10% of the scheduled time for each time point. Two extra animals were used for analytic method development. Blood (>0.3 mL) were collected via aorta abdominalis in anaesthetic animalsinto tubes containing heparin at 15 min, 1, 2, 6, 10 and 24 hours after iv administration. Liver and brain tissues were collected immediately after animal death. The liver and brain tissues were excised and rinsed with cold saline to avoid blood residual. Upon collection, each sample was placed on ice and the blood samples were subsequently centrifuged (4° C., 11000 rpm, 5 min) to separate plasma. The obtained plasma, liver and brain tissue samples were stored at −70° C. until LC-MS/MS analysis.
AUC0-∞ (AUC/NF) is the area under the plasma concentration-time curve with last concentration extrapolated based on the elimination rate constant.

[1] = female, Sprague-Dawley (SD), iv, 0.5 mg/kg, 100 brain concentration
[2] = female, Sprague-Dawley (SD), iv, 0.5 mg/kg, 100 liver concentration
[3] = female, Sprague-Dawley (SD), iv, 1 mg/kg, 100 liver concentration
[4] = female, Sprague-Dawley (SD), iv, 1.5 mg/kg, 100 brain concentration
[5] = female, Sprague-Dawley (SD), iv, 1.5 mg/kg, 100 liver concentration
[6] = female, Sprague-Dawley, iv, 0.5 mg/kg, 100 plasma concentration
[7] = female, Sprague-Dawley, iv, 1 mg/kg, 100 plasma concentration
[8] = female, Sprague-Dawley, iv, 1.5 mg/kg, 100 plasma concentration

CN1CCN(C(=O)C2C3CCC(O3)C2C(=O)O)CC1 (stereo not drawn) [Compound 100, 3-(4-methylpiperazine-1-carbonyl)-7-oxa-bicyclo[2,2,1]-heptane-2-carboxylic acid]
AUC(0-inf) (female, SD, iv, 0.5 mg/kg): 706 ng·h/mL | AUC(0-t) (female, SD, iv, 0.5 mg/kg): 696 ng·h/mL | Tmax of 100 (female, SD, iv, 0.5 mg/kg): 0.25 h | Cmax (female, SD, iv, 0.5 mg/kg, Cmax of 100): 1110 ng/mL | Tmax (female, SD, iv, 0.5 mg/kg): 0.25 h | AUC(0-inf) (female, SD, iv, 1 mg/kg): 2830 ng·h/mL | AUC(0-t) (female, SD, iv, 1 mg/kg): 1920 ng·h/mL | Tmax of 100 (female, SD, iv, 1 mg/kg): 0.25 h | Cmax (female, SD, iv, 1 mg/kg, Cmax of 100): 2380 ng/mL | MRT (female, SD, iv, 1 mg/kg): 2.68 h | Tmax (female, SD, iv, 1 mg/kg): 0.25 h | AUC(0-inf) (female, SD, iv, 1.5 mg/kg): 8640 ng·h/mL | AUC(0-t) (female, SD, iv, 1.5 mg/kg): 7400 ng·h/mL | Cmax (female, SD, iv, 1.5 mg/kg, Cmax of 100): 3660 ng/mL | MRT (female, SD, iv, 1.5 mg/kg): 2.57 h | half-life (female, SD, iv, 1.5 mg/kg, T½ of 100): 1.93 h | concentration at 0.25 h [1]: 15.3 ng/g | concentration at 0.25 hr [1]: 17.4 ng/g | concentration at 1 hr [1]: 6.31 ng/g | concentration at 0.25 h [2]: 520 ng/g | concentration at 2 h [2]: 109 ng/g | concentration at 6 h [2]: 4.8 ng/g | concentration at 2 h (female, Sprague-Dawley (SD), iv, 0.5 mg/kg, 100 plasma concentration): 22.6 ng/mL | concentration at 0.25 h [3]: 1300 ng/g | concentration at 1 h [3]: 865 ng/g | concentration at 0.25 h [4]: 46.9 ng/g | concentration at 1 h [4]: 28.2 ng/g | concentration at 2 h [4]: 27.2 ng/g | concentration at 6 h [4]: 4.23 ng/g | concentration at 0.25 h [5]: 1980 ng/g | concentration at 1 h [5]: 2140 ng/g | concentration at 2 h [5]: 2400 ng/g | concentration at 6 h [5]: 407 ng/g | concentration at 10 h [5]: 5.25 ng/g | 100 liver concentration (female, Sprague-Dawley (SD), iv, 1.5 mg/kg, 6 h): 536 ng/g | concentration at 0.25 h [6]: 1000 ng/mL | concentration at 1 h [6]: 192 ng/mL | concentration at 2 h [6]: 25.8 ng/mL | 100 plasma concentration (female, Sprague-Dawley, iv, 0.5 mg/kg, 2 h): 19.4 ng/mL | concentration at 0.25 h [7]: 2120 ng/mL | concentration at 1 h [7]: 354 ng/mL | concentration at 6 h [7]: 3.27 ng/mL | AUC(0-t) (female, Sprague-Dawley, iv, 1.5 mg/kg): 696 to 7400 ng·h/mL | concentration at 0.25 h [8]: 3780 ng/mL | concentration at 1 h [8]: 1760 ng/mL | concentration at 2 h [8]: 1310 ng/mL | concentration at 6 h [8]: 263 ng/mL | half-life (female, Sprague-Dawley, iv, 1.5 mg/kg, T1/2 of 100 in brain): 1.67 to 1.93 h | half-life (female, Sprague-Dawley, iv, 1.5 mg/kg, T1/2 of 100 in liver): 0.78 to 2.01 h | half-life (female, Sprague-Dawley, iv, 1.5 mg/kg, T1/2 of 100 in plasma): 0.31 to 2.2 h | Cmax (female, Sprague-Dawley, iv, 1.5 mg/kg, mean Cmax of 100 in brain): 17.4 to 43.5 ng/g | Cmax (female, Sprague-Dawley, iv, 1.5 mg/kg, mean Cmax of 100 in liver): 586 to 2550 ng/g | AUC of 100 versus dose level (statement): increased proportionally | 100 detectable in brain tissue samples (iv): detectable | 100 detectable in liver tissue samples (iv): detectable | 100 in brain tissue (iv): below limit of quantification | 100 in liver tissue (iv): below limit of quantification | AUCINF of 100 (iv, 0.5 mg/kg): 902.2 ng·h/g | AUClast of 100 in brain (iv, 1.5 mg/kg): 10.8˜125.5 ng·h/g | AUClast of 100 in liver (iv, 1.5 mg/kg): 758.6˜9081.0 ng·h/g
